Experimental data published in publication PMC5694482 (Frontiers in Pharmacology, 2017).
Values joined by “and” are separate entries in the source; they are usually repeats but may differ in a detail not shown here. Identical values can stand only once. “Also recorded” adds a separate entry of the source. Like-named read-outs stand apart in the source and are kept apart here.

Tests used:
mouse asthma model [1] = conditions: cited from earlier work
H4R [2] = biological target: T1, H4R (Homo sapiens, UniProt Q9H3N8); assay: Competition binding assay with [3H]-histamine in HEK293T cells transiently expressing H4R; conditions: for binding to H4R in initial screening (in words): screening format, Supplementary Figure S2
T1 construct: expressed in transfected cells; host or cells: HEK293T
T1 sequence (Q9H3N8 whole entry, species assumed): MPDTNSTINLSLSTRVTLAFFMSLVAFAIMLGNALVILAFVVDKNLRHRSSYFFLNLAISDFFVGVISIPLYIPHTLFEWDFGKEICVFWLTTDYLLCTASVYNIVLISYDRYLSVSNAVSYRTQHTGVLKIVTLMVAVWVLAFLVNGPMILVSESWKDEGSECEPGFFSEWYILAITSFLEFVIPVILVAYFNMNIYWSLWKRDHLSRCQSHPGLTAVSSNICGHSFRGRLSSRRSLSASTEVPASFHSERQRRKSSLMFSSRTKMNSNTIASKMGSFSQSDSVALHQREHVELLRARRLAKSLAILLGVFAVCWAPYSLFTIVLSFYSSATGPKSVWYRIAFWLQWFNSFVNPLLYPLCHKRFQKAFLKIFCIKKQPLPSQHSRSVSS

mouse asthma model [3] = assay: OVA-induced allergic asthma in mice, cell counts in bronchoalveolar lavage; assay type: in vivo, Male C57Bl/6 mice; conditions: 3 and 5 mg/kg intraperitoneally 30 min before antigen challenge
Procedure: Male C57Bl/6 mice weighing 20–25 g, 6–8 weeks old, from our own animal facilities were housed in a room with a 12 h light–dark cycle with water and food ad libitum. Animal care and research protocols were in accordance with the principles and guidelines adopted by the Brazilian College of Animal Experimentation (COBEA) and this project was approved by the Ethical Committee for Animal Research of the Federal University of São Paulo (CEUA 1666/99).
Mice (n = 5 per group) were sensitized on days 0 and 7 by an intraperitoneal injection of a mixture containing […] of ovalbumin (OVA; Grade V, Sigma–Aldrich, United States) and 1 mg of Al(OH)3 in PBS (a total volume of 0.2 ml). Mice were challenged by exposure to an aerosol of OVA generated by an ultrasonic nebulizer (ICEL US-800, SP, Brazil) delivering particles of […] diameter at approximately 0.75 cc/min for 20 min at days 14 and 21. The concentration of OVA in the nebulizer was 2.5% w/v in PBS. The control group consisted of animals immunized as previously described and challenged two times with PBS solution. Compounds 1d and 1e were administered intraperitoneally in two different dosages (5 and 3 mg/kg) to the test groups 30 min before the antigen challenge. Sensitized and control groups were used to assess the anti-inflammatory activity ([Corrêa et al., 2017]).
Mice were euthanized with intraperitoneal ketamine and xylazine (100 and 10 mg/kg, respectively; Agibrands do Brazil, São Paulo, São Paulo, Brazil), 24 h after exposure to the last aerosol challenge. A tracheal cannula was inserted via a mid cervical incision, and the airways were washed twice with 1 ml of phosphate-buffered saline (PBS, pH 7.4 at 4°C).
The bronchoalveolar lavage fluid was centrifuged at 170 × g for 10 min at 4°C, the supernatant was removed, and the cell pellet was re-suspended in 1 ml of PBS. One volume of a solution containing 0.5% crystal violet dissolved in 30% acetic acid was added to nine volumes of the cell suspension. The total number of cells was determined by counting in a hematocytometer. […]

H3R [4] = biological target: T2, H3R (Homo sapiens, UniProt Q9Y5N1); conditions: for Ki: H3R pKi ± SEM; for SI H4R/H3R (Ki): selectivity index, ratio of Ki H4R/H3R
T2 sequence (Q9Y5N1 whole entry, species assumed): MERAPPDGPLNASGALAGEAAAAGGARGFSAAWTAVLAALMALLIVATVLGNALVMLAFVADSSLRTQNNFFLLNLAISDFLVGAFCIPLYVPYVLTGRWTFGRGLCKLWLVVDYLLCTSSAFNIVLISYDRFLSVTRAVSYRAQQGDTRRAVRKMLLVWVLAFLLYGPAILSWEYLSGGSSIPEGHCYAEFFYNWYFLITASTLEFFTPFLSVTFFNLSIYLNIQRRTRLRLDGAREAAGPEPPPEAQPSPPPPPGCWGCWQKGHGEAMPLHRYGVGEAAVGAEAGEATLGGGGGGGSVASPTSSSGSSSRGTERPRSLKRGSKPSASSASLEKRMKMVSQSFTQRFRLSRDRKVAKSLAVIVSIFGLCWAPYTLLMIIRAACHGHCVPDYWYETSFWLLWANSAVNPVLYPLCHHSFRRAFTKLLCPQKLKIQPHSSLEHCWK

H3R [5] = biological target: T2, H3R; assay: G protein (Gi1) activation BRET assay, H3R, agonist and antagonist mode; assay type: cell-based; set-up: expressed in transfected cells; host or cells: HEK293T; conditions: BRET Gi1 biosensor, up to 10,000 nM
H4R [6] = biological target: T1, H4R; assay: G protein (Gi1) activation BRET assay, H4R, agonist and antagonist mode; assay type: cell-based; conditions: for Gi activation at H4R (agonist mode): BRET Gi1 biosensor, up to 10,000 nM; for block of histamine activity at H4R (antagonist mode): preincubation 30 min at 10,000 nM before histamine
[7] = displacement of 1.15 nM [3H]-histamine, HEK293T cells, Cheng-Prusoff, read-out: H4R pKi ± SEM (converted)
[8] = displacement of 1.15 nM [3H]-histamine, HEK293T cells, Cheng-Prusoff

Row | Compound | Ki (H4R [2]; [7]) | Ki (H3R [4]; [8]) | SI H4R/H3R (Ki) (H3R [4]) | other results
1 | CN1CCN(C(=O)c2cc3cc(Cl)ccc3[nH]2)CC1 [JNJ-7777120, reference compound] | – | – | – | effect on inflammatory infiltrations in experimental murine asthma model (mouse asthma model [1]; ref Neumann et al., 2013): capable of reducing the inflammatory infiltrations
2 | c1ccc(N2CCN(CC3Cc4ccccc4O3)CC2)cc1 (centres unmarked) [1d, 1-[(2,3-dihydro-1-benzofuran-2-yl)methyl]-4-phenyl-piperazine] | > 10000 nM | > 10000 nM | – | anti-inflammatory activity in mouse asthma model (mouse asthma model [1]; earlier report, ref Corrêa et al., 2017): anti-inflammatory activity only at 5 mg/kg dose; effect on total inflammatory cell and eosinophil counts in bronchoalveolar lavage (mouse asthma model [3]): dose-dependent effect; affinity for H3R (in words) (H3R [4]): did not show appreciable affinity
3 | CN1CCN(CC2Cc3ccccc3O2)CC1 (centres unmarked) [1b, 1-[(2,3-dihydro-1-benzofuran-2-yl)methyl]-4-methylpiperazine] | > 10000 nM | 2690 nM | – | –
4 | NC(=NCc1ccc(Cl)cc1)SCCCc1cnc[nH]1 [Clobenpropit] | – | – | – | Gi activation at H3R (agonist mode) (H3R [5]): unable to trigger Gi activation
5 | C=CCN1CCN(CC2Cc3ccccc3O2)CC1 (centres unmarked) [1c, 1-allyl-4-[(2,3-dihydro-1-benzofuran-2-yl)methyl]piperazine] | > 10000 nM | – | >25 | H3R pKi ± SEM (H3R [4]; [8]): 6.40 ± 0.21
6 | CN1CCN(CC2Cc3cc(C(C)(C)C)ccc3O2)CC1 (centres unmarked) [1h, 1-methyl-4-[(5-tert-butyl-2,3-dihydro-1-benzofuran-2-yl)methyl]piperazine] | > 10000 nM | ~851 nM and 851 nM | > 11 | –
7 | Cc1ccc2c(c1)CC(CN1CCN(C)CC1)O2 (centres unmarked) [1f, 1-methyl-4-[(5-methyl-2,3-dihydro-1-benzofuran-2-yl)methyl]piperazine] | – | 708 nM | 14 | Gi activation at H4R (agonist mode) (H4R [6]): weak agonistic effect in high concentrations; also recorded: moderate agonistic effect; block of histamine activity at H4R (antagonist mode) (H4R [6]): only partially blocked histamine activity; also recorded: only partially reduced histamine effect; Ki (H4R [2]; read-out: H4R Ki / binding affinity): ~10000 nM; binding to H4R in initial screening (in words) (H4R [2]): considerable binding to H4R
8 | CN1CCN(CC2Cc3cc(Cl)ccc3O2)CC1 (centres unmarked) [1e, 1-[(5-chloro-2,3-dihydro-1-benzofuran-2-yl)methyl]-4-methylpiperazine] | 871 nM | ~851 nM and 851 nM | 1.1 | Gi activation at H4R (agonist mode) (H4R [6]): did not trigger Gi activation; block of histamine activity at H4R (antagonist mode) (H4R [6]): fully blocked histamine agonistic effect; increase in affinity for H4R by insertion of the chlorine atom (H4R [2]; 1e against the non-substituted molecule): more than 10 fold; binding to H4R in initial screening (in words) (H4R [2]): considerable binding to H4R; effect on total inflammatory cell and eosinophil counts in bronchoalveolar lavage (mouse asthma model [3]): low counts in both doses; also recorded: highly effective at low doses; effect on total inflammatory cell and eosinophil counts in bronchoalveolar lavage (mouse asthma model [3]; listed as LINS01007): better anti-inflammatory activity
9 | COc1ccc2c(c1)CC(CN1CCN(C)CC1)O2 (centres unmarked) [1g, 1-methyl-4-[(5-methoxy-2,3-dihydro-1-benzofuran-2-yl)methyl]piperazine] | > 10000 nM | 871 nM | >11 | –
10 | Clc1ccc2c(c1)CC(CN1CCN(c3ccccc3)CC1)O2 (centres unmarked) [1i, 1-[(5-chloro-2,3-dihydro-1-benzofuran-2-yl)methyl]-4-phenylpiperazine] | > 10000 nM | > 10000 nM | – | affinity for H3R (in words) (H3R [4]): did not show appreciable affinity
11 | c1ccc2c(c1)CC(CN1CCNCC1)O2 (centres unmarked) [1a, 1-[(2,3-Dihydro-1-benzofuran-2-yl)methyl]piperazine] | > 10000 nM | > 10000 nM | – | affinity for H3R (in words) (H3R [4]): did not show appreciable affinity
12 | NCCc1c[nH]cn1 [Histamine, reference compound] | – | – | – | Gi activation at H4R (agonist mode) (H4R [6]): poor stimulant of Gi; Gi activation at H3R (agonist mode) (H3R [5]): strong activation signal
